# Reference: patent US11117900B2 (Vertex Pharmaceuticals Incorporated, priority 2012, dated 2021)
# Test system: HCT116 colorectal cancer cells
# Test: Cisplatin sensitization assay (96 h MTS cell viability);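 also: compound concentration needed to lower the IC50 of Cisplatin alone by a set fold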
# Format: cell-based
# Conditions: Cisplatin sensitization value
# How it was run: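 HCT116 cells were dosed simultaneously with compound and cisplatin as a full matrix of 2-fold serial dilutions from 10 μM top final concentration. Incubation was 96 h at 37° C., 5% CO2, followed by 1 h with MTS reagent for the viability read-out. Sensitization values were binned into +++, ++ and + categories.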
row,Structure (SMILES),Cisplatin Sensitization Assay
1,"CN1CCN(C2CCN(c3ccncc3NC(=O)c3c(N)nn4cc(Cl)cnc34)CC2)CC1 [I-N-97, 2-amino-6-chloro-N-(4-(4-(4-methylpiperazin-1-yl)piperidin-1-yl)pyridin-3-yl)pyrazolo[1,5-a]pyrimidine-3-carboxamide]",+++ (Compounds with a Cisplatin sensitization value of <0.02 μM are marked with “+++.”)
2,"CC1(C)CN(C(=O)C2CCN(c3c(F)cncc3NC(=O)c3c(N)nn4cc(F)cnc34)CC2)CCN1 [I-G-27, 2-amino-N-(4-(4-(3,3-dimethylpiperazine-1-carbonyl)piperidin-1-yl)-5-fluoropyridin-3-yl)-6-fluoropyrazolo[1,5-a]pyrimidine-3-carboxamide]",++ (Compounds with a Cisplatin sensitization value >0.02 μM but <0.2 μM are marked with “++.”)
3,"Cn1ccc2c(NC(=O)c3c(N)nn4cc(F)cnc34)cncc21 [I-C-74, 2-amino-6-fluoro-N-(1-methyl-1H-pyrrolo[2,3-c]pyridin-4-yl)pyrazolo[1,5-a]pyrimidine-3-carboxamide]",+ (Compounds with a Cisplatin sensitization value >0.2 μM but <5 μM are marked with “+.”)
4,"Nc1nn2cc(Cl)cnc2c1C(=O)Nc1cnccc1N1CCC(N2CCC23COC3)CC1 [I-N-109, N-(4-(4-(6-oxa-1-azaspiro[3.3]heptan-1-yl)piperidin-1-yl)pyridin-3-yl)-2-amino-6-chloropyrazolo[1,5-a]pyrimidine-3-carboxamide]",+++ (Compounds with a Cisplatin sensitization value of <0.02 μM are marked with “+++.”)
5,"Nc1nn2cc(F)cnc2c1C(=O)Nc1cncc(Cl)c1N1CCC(C(=O)N2CCNCC2)CC1 [I-G-48, 2-amino-N-(5-chloro-4-(4-(piperazine-1-carbonyl)piperidin-1-yl)pyridin-3-yl)-6-fluoropyrazolo[1,5-a]pyrimidine-3-carboxamide]",+++ (Compounds with a Cisplatin sensitization value of <0.02 μM are marked with “+++.”)
6,"CC(C)(C)N1CCN(c2ccncc2NC(=O)c2c(N)nn3cc(Cl)cnc23)CC1 [I-N-34, 2-amino-N-(4-(4-(tert-butyl)piperazin-1-yl)pyridin-3-yl)-6-chloropyrazolo[1,5-a]pyrimidine-3-carboxamide]",++ (Compounds with a Cisplatin sensitization value >0.02 μM but <0.2 μM are marked with “++.”)
7,"Cc1cncc(NC(=O)c2c(N)nn3cc(Cl)cnc23)c1N1CCN(C)CC1 [I-N-57, 2-amino-6-chloro-N-(5-methyl-4-(4-methylpiperazin-1-yl)pyridin-3-yl)pyrazolo[1,5-a]pyrimidine-3-carboxamide]",+++ (Compounds with a Cisplatin sensitization value of <0.02 μM are marked with “+++.”)
8,"Cc1nonc1N1CCN(c2ccncc2NC(=O)c2c(N)nn3cc(F)cnc23)CC1 [I-N-260, 2-amino-6-fluoro-N-(4-(4-(4-methyl-1,2,5-oxadiazol-3-yl)piperazin-1-yl)pyridin-3-yl)pyrazolo[1,5-a]pyrimidine-3-carboxamide]",+++ (Compounds with a Cisplatin sensitization value of <0.02 μM are marked with “+++.”)
9,"CN1CCC(N(C)S(=O)(=O)C2CCN(c3c(F)cncc3NC(=O)c3c(N)nn4cc(F)cnc34)CC2)CC1 [I-N-148, 2-amino-6-fluoro-N-(5-fluoro-4-(4-(N-methyl-N-(1-methylpiperidin-4-yl)sulfamoyl)piperidin-1-yl)pyridin-3-yl)pyrazolo[1,5-a]pyrimidine-3-carboxamide]",+++ (Compounds with a Cisplatin sensitization value of <0.02 μM are marked with “+++.”)
10,"COCCOc1ccncc1NC(=O)c1c(N)nn2cc(Cl)cnc12 [I-O-55, 2-amino-6-chloro-N-(4-(2-methoxyethoxy)pyridin-3-yl)pyrazolo[1,5-a]pyrimidine-3-carboxamide]",++ (Compounds with a Cisplatin sensitization value >0.02 μM but <0.2 μM are marked with “++.”)
11,"CC(=O)N1CC2(CCN(c3ccncc3NC(=O)c3c(N)nn4cc(F)cnc34)CC2)C1 [I-N-251, N-(4-(2-acetyl-2,7-diazaspiro[3.5]nonan-7-yl)pyridin-3-yl)-2-amino-6-fluoropyrazolo[1,5-a]pyrimidine-3-carboxamide]",+++ (Compounds with a Cisplatin sensitization value of <0.02 μM are marked with “+++.”)
12,"CO[C@H]1CCN(C(=O)C2CCN(c3c(F)cncc3NC(=O)c3c(N)nn4cc(F)cnc34)CC2)C1 [I-G-99, (S)-2-amino-6-fluoro-N-(5-fluoro-4-(4-(3-methoxypyrrolidine-1-carbonyl)piperidin-1-yl)pyridin-3-yl)pyrazolo[1,5-a]pyrimidine-3-carboxamide]",+++ (Compounds with a Cisplatin sensitization value of <0.02 μM are marked with “+++.”)
13,"Nc1nn2cc(F)cnc2c1C(=O)Nc1cncc(F)c1N1CCN(C(=O)C2CC3CCCCN3C2)CC1 (stereo not shown) [I-N-203, 2-amino-6-fluoro-N-(5-fluoro-4-(4-(octahydroindolizine-2-carbonyl)piperazin-1-yl)pyridin-3-yl)pyrazolo[1,5-a]pyrimidine-3-carboxamide]",+++ (Compounds with a Cisplatin sensitization value of <0.02 μM are marked with “+++.”)
14,"CN1CCN(c2c(F)cncc2NC(=O)c2c(N)nn3cc(F)cnc23)CC1=O [I-N-212, 2-amino-6-fluoro-N-(5-fluoro-4-(4-methyl-3-oxopiperazin-1-yl)pyridin-3-yl)pyrazolo[1,5-a]pyrimidine-3-carboxamide]",+++ (Compounds with a Cisplatin sensitization value of <0.02 μM are marked with “+++.”)
15,"Nc1nn2cc(F)cnc2c1C(=O)Nc1cncc(F)c1N1CCS(=O)(=O)CC1 [I-N-250, 2-amino-N-(4-(1,1-dioxidothiomorpholino)-5-fluoropyridin-3-yl)-6-fluoropyrazolo[1,5-a]pyrimidine-3-carboxamide]",++ (Compounds with a Cisplatin sensitization value >0.02 μM but <0.2 μM are marked with “++.”)
16,"COc1ccc(-c2ccncc2NC(=O)c2c(N)nn3cc(F)cnc23)cn1 [I-C-27, 2-amino-6-fluoro-N-(6-methoxy-[3,4′-bipyridin]-3′-yl)pyrazolo[1,5-a]pyrimidine-3-carboxamide]",++ (Compounds with a Cisplatin sensitization value >0.02 μM but <0.2 μM are marked with “++.”)
17,"CN(C)CC1CCN(c2ccncc2NC(=O)c2c(N)nn3cc(F)cnc23)CC1 [I-N-267, 2-amino-N-(4-(4-((dimethylamino)methyl)piperidin-1-yl)pyridin-3-yl)-6-fluoropyrazolo[1,5-a]pyrimidine-3-carboxamide]",+++ (Compounds with a Cisplatin sensitization value of <0.02 μM are marked with “+++.”)
18,"Cn1nccc1-c1ccncc1NC(=O)c1c(N)nn2cc(F)cnc12 [I-C-57, 2-amino-6-fluoro-N-(4-(1-methyl-1H-pyrazol-5-yl)pyridin-3-yl)pyrazolo[1,5-a]pyrimidine-3-carboxamide]",+++ (Compounds with a Cisplatin sensitization value of <0.02 μM are marked with “+++.”)
19,"N#CCc1cnc2c(C(=O)Nc3cnccc3OC3CCCNC3)c(N)nn2c1 (racemic) [I-O-2, (R,S)-2-amino-6-(cyanomethyl)-N-(4-(piperidin-3-yloxy)pyridin-3-yl)pyrazolo[1,5-a]pyrimidine-3-carboxamide]",++ (Compounds with a Cisplatin sensitization value >0.02 μM but <0.2 μM are marked with “++.”)
